Reference: patent US20250262195A1, “METHOD TO PREVENT AND TREAT DIABETIC RETINOPATHY BY CALCIUM CHANNEL BLOCKERS, ANGIOTENSIN CONVERTING ENZYME INHIBITORS, AND ANGIOTENSIN RECEPTOR BLOCKERS” (priority 2022, published 2025)

Legend:
Type in all cases: in vivo, human
[1] = tested on: patients with diabetic retinopathy; experiment: Experimental use: vasodilators applied to patients' eyes, progression monitored at follow-up appointments; settings: applied to the eye; based on prior experience and observation during treatment of patients
[2] = tested on: patient diagnosed with diabetic retinopathy; experiment: Treatment of a patient diagnosed with diabetic retinopathy, one eye treated and the other left untreated
Excerpt: A patient is diagnosed with diabetic retinopathy. A composition comprising the calcium channel blocker nifedipine is directly applied to the vitreous surface of one eye while the other eye is left untreated. […] A patient is diagnosed with diabetic retinopathy. A composition comprising the ACE inhibitor enalapril is directly applied to the vitreous surface of one eye while the other eye is left untreated. […] A patient is diagnosed with diabetic retinopathy. A composition comprising the angiotensin receptor blocker losartan is directly applied to the vitreous surface of one eye while the other eye is left untreated. […] A patient is diagnosed with diabetic retinopathy. A composition comprising the calcium channel blocker nifedipine is applied to the eye by intravitreal or intraocular injection while the other eye is left untreated. […] A patient is diagnosed with diabetic retinopathy. A composition comprising the ACE inhibitor enalapril is applied to the eye by intravitreal or intraocular injection while the other eye is left untreated. […] A patient is diagnosed with diabetic retinopathy. A composition comprising the angiotensin receptor blocker losartan is applied to the eye by intravitreal or intraocular injection while the other eye is left untreated.

[3] = tested on: patient successfully treated for diabetic retinopathy; experiment: Prevention of recurrence in a patient successfully treated for diabetic retinopathy, one eye treated and the other left untreated; settings: untreated eye shows signs of recurrence
Excerpt: A composition comprising the calcium channel blocker nifedipine is directly applied to the vitreous surface of one eye while the other eye is left untreated. […] A composition comprising the ACE inhibitor enalapril is directly applied to the vitreous surface of one eye while the other eye is left untreated. […] A composition comprising the angiotensin receptor blocker losartan is directly applied to the vitreous surface of one eye while the other eye is left untreated. […] A composition comprising the calcium channel blocker nifedipine is applied to the eye by intravitreal or intraocular injection while the other eye is left untreated. […] A composition comprising the ACE inhibitor enalapril is applied to the eye by intravitreal or intraocular injection while the other eye is left untreated. […] A composition comprising the angiotensin receptor blocker losartan is applied to the eye by intravitreal or intraocular injection while the other eye is left untreated.

[4] = tested on: patient with diabetic retinopathy; experiment: Topical ramiprilat formulation to the eye of a patient with diabetic retinopathy
Description: In this example, a patient with diabetic retinopathy is administered a topical formulation comprising ramiprilat to the eye. […] The diabetic retinopathy is therefore treated by the topical formulation.

[5] = composition applied by intravitreal or intraocular injection
[6] = composition directly applied to the vitreous surface of one eye

| Compound | effectiveness for the treatment of diabetic retinopathy or its symptoms [1] | symptoms of diabetic retinopathy, treated eye compared to untreated eye [2, 5] | symptoms of diabetic retinopathy, treated eye compared to untreated eye [2, 6] | development (recurrence) of diabetic retinopathy in the treated eye [3, 5] | development (recurrence) of diabetic retinopathy in the treated eye [3, 6] | further results |
| --- | --- | --- | --- | --- | --- | --- |
| CCCC(=O)OCOC(=O)C1=C(C)NC(C)=C(C(=O)OC)C1c1cccc(Cl)c1Cl (stereo not drawn) [clevidipine] | effective |  |  |  |  |  |
| CCOC(=O)[C@H](CCc1ccccc1)N[C@@H](C)C(=O)N1CCC[C@H]1C(=O)O [enalapril] |  | reduced symptoms of diabetic retinopathy | reduced symptoms of diabetic retinopathy | not develop diabetic retinopathy | not develop diabetic retinopathy |  |
| COC(=O)C1=C(C)NC(C)=C(C(=O)OC(C)C)C1c1cccc2nonc12 (stereo not drawn) [isradipine] | effective |  |  |  |  |  |
| CCCCc1nc(Cl)c(CO)n1Cc1ccc(-c2ccccc2-c2nn[nH]n2)cc1 [losartan] |  | reduced symptoms of diabetic retinopathy | reduced symptoms of diabetic retinopathy | not develop diabetic retinopathy | not develop diabetic retinopathy |  |
| Ramiprilat |  |  |  |  |  | capillary blood supply to the eye [4]: increases the capillary blood supply; capillary networks in the eye [4]: grows capillary networks; diabetic retinopathy outcome [4]: treated; intraocular pressure [4]: reduction in intraocular pressure; optic nerve [4]: repair to the optic nerve |
